Where a SMILES comes first, the peptide text is derived from it.
What was measured:
recombinant human FAP = recombinant human FAP (Homo sapiens (Human), UniProt Q12884); assay: In vitro enzyme IC50 assay, FAP (Example 10); type: biochemical; conditions: 10 min preincubation at 25° C., Z-Gly-Pro-AMC
Procedure: Biological Materials: For the in vitro IC50 determination assays, recombinant human DPPIV, DPP9, FAP, and PREP were purchased from R&D Systems, and DPP8 was from Biomol International. Buffer systems used were A (25 mM Tris, pH 8.0), B (50 mM Tris, pH 7.5), C (50 mM Tris, 140 mM NaCl, pH 7.5), D (25 mM Tris, 250 mM NaCl, pH 7.5), and E (20 mM Tris, 20 mM KCl, pH 7.4). […] Substrate Specificity Assay. Peptide libraries (0.21 mM) were incubated for 24 h with 1 nM FAP in buffer E at 37° C. The reaction was quenched by the addition of 1.2 N HCl. The samples were analyzed by reverse-phase HPLC-MS on a Thermo Finnigan LCQ Duo, quantifying the peaks in the resulting base peak chromatograms. Relative cleavage values were determined by comparing the postquench abundance of intact peptides to those in the initial library.
In Vitro Enzyme IC50 Assays. Enzymatic activity of DPPIV, DPP8, DPP9, FAP, and PREP was measured at 25° C. on a Molecular Devices M2e multidetection microtiter plate reader, monitoring the fluorescence at an excitation wavelength of 380 nm and an emission wavelength of 460 nm. The substrate was either H-Gly-Pro-AMC for the DPPIV, DPP8, and DPP9 assays or Z-Gly-Pro-AMC for the FAP and PREP assays. The reaction mixture contained […], enzyme, buffer A (DPPIV and DPP9), buffer B (DPP8), buffer C (FAP), or buffer D (PREP) and a suitable amount of inhibitor (ranging between 10-4 and 10-11 M) in a total volume of 210 μL. The final enzyme concentrations were 0.1, 0.8, 0.4, 1.2, and 0.6 nM for DPPIV, DPP8, DPP9, FAP, and PREP, respectively. […] Those prepared in pH 2.0 solution were preincubated at 25° C. for 4 h prior to dilution. Immediately prior to the commencement of the experiment, the 100 mM stocks were further diluted to 10−3 M in the appropriate assay buffer, from which 1:10 serial dilutions were prepared. All inhibitors were tested in triplicate.

[1] = target: recombinant human fibroblast activation protein (FAP) (Homo sapiens (Human), UniProt Q12884); assay: In vitro IC50 assay, fibroblast activation protein (Example 15); type: biochemical; conditions: Z-Gly-Pro-AMC, room temperature; read-out: FAP IC50
Chain of recombinant human fibroblast activation protein (FAP) (Q12884 whole entry): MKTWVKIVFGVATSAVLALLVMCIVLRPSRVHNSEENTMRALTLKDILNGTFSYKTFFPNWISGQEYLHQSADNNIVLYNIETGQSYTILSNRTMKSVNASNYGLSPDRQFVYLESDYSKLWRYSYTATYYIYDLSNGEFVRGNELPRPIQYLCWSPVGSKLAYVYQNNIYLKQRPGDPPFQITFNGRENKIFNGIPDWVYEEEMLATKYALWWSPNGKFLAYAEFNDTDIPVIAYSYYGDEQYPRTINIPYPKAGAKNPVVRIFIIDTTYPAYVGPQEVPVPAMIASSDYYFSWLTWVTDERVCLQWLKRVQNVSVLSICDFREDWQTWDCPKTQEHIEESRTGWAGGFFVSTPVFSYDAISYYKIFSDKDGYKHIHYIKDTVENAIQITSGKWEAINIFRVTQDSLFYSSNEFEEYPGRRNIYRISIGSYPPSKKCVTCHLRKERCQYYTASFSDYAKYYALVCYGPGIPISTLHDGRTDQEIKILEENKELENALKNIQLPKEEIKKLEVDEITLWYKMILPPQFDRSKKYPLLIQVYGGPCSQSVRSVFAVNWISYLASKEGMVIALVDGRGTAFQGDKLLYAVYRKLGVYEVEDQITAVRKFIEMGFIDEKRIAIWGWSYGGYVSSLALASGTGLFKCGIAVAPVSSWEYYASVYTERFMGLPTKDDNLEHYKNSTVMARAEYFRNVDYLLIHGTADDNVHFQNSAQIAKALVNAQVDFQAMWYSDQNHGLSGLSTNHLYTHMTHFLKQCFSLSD
Procedure: (§1) The purpose of this assay is to determine the IC50 of various inhibitors against recombinant human dipeptidyl peptidase IV (DPPIV), fibroblast activation protein (FAP) or prolyl oligopeptidase (PREP).
(§2) The assays are conducted in the following steps: • 1 Dissolve the compound in DMSO to a final concentration of 100 mM. From this, prepare a 1 mM stock at pH 7.5 in 50 mM Tris, 140 mM NaCl Buffer (FAP)/pH 7.5 in 25 mM Tris, 250 mM NaCl Buffer/pH 8.0 140 mM NaCl Buffer (PREP). • 2. Serial dilute (1:10) the 1 mM compound stocks prepared previously into the appropriate assay buffer (FAP: 50 mM Tris, 140 mM NaCl, pH 7.5/PREP: 25 mM Tris, 0.25 M NaCl, pH 7.5/DPPIV: 25 mM Tris, pH 8.0) to one row of a 96-well plate. • 3. […] Dilute the enzymes into their appropriate assay buffers. The final enzyme concentrations should be 0.1, 1.2, and 0.6 nM for DPPIV, FAP and PREP respectively. Add 180 μL to each well needed in columns 2-10. Column 1 (A,B,C) should be prepared with 200 ul of appropriate assay buffer as control. Column 1 (D,E,F,G,H) should be prepared with 20 ul of appropriate assay buffer and 180 ul enzyme as no inhibitor control. • 5. Add 20 μL of the compound of interest from the dilution plate prepared in step 2 to columns 2-10 of the assay plate where appropriate. Each sample should be tested in triplicate. Allow this to incubate for 10 minutes at room temperature, shaking the plate for the first two minutes. • 6. Add 10 μL of 20× substrate prepared in step 3 to each well and allow this to incubate for 15 minutes at room temperature, shaking the plate for the first two minutes. • 7. Read the fluorescence at λex: 380, λem: 460. (DPcore=[dAla|dSerGly]-[boroPro|Pro-nitrile], XXaa=alpha-amino acid)

[2] = Solubility in water after lyophilization
[3] = Stability in aqueous solution of pH about 3; conditions: during HPLC purification and subsequent lyophilization
[4] = target: recombinant human dipeptidyl peptidase IV (DPPIV) (Homo sapiens (Human), UniProt P27487); assay: In vitro IC50 assay, dipeptidyl peptidase IV (Example 15); type: biochemical; conditions: Gly-Pro-AMC, room temperature
Chain of recombinant human dipeptidyl peptidase IV (DPPIV) (P27487 whole entry): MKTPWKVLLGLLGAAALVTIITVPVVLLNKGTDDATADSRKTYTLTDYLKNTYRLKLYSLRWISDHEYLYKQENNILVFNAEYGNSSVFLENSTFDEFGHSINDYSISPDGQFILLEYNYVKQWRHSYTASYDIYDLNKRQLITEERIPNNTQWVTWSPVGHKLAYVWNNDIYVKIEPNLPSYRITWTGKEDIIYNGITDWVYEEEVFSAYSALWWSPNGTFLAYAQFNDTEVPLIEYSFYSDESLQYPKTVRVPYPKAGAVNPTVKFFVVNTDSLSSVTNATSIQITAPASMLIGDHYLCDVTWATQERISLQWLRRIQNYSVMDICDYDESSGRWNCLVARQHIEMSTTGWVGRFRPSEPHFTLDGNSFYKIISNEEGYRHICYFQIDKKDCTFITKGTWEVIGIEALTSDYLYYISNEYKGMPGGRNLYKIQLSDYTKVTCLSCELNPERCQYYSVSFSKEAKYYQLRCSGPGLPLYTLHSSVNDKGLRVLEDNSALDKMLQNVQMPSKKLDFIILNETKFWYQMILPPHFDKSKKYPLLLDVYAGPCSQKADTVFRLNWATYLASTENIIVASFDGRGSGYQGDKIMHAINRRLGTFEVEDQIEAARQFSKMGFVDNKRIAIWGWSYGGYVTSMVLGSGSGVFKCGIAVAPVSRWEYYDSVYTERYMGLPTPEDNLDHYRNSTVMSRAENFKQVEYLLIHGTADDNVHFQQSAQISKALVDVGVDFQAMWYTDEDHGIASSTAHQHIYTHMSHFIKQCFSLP
Procedure: as §1, §2

Chain of recombinant human FAP (Q12884 whole entry): as the sequence (Q12884 whole entry) above

Row | Molecule | IC50 (recombinant human FAP) [nM] | IC50 [1] [nM] | solubility [2] [mg/mL] | degradation in aqueous solution [3] | IC50 [4] [µM]
1 | C[C@@H](NC(=O)c1ccc(NNC(=O)CCCNC(=O)CN2CCN3CCN4CCN(CC2)CC(=O)[O][Gd]([O]C(=O)C3)[O]C(=O)C4)cc1)C(=O)N1CCC[C@H]1B(O)O [Compound 6489Gd, DOTA[Gd]-GABA-HyBz-D-Ala-boroPro] | 1.1 | – | – | – | –
2 | CC(C)[C@H](NC(=O)CN1CCN(CC(=O)O)CCN(CC(=O)O)CCN(CC(=O)O)CC1)C(=O)N[C@H](C)C(=O)N1CCC[C@H]1B(O)O [Compound 6508, DOTA-Val-DAla-boroPro] | 62 | – | – | – | –
3 | C[C@@H](NC(=O)[C@H](CO)NC(=O)CN1CCN2CCN(CC(=O)O)CCN(CC1)CC(=O)[O][Cu][O]C(=O)C2)C(=O)N1CCC[C@H]1B(O)O [Compound 6509CU, DOTA[(Cu(II)]-Ser-D-Ala-boroPro] | 128 | 128 | – | – | –
4 | C[C@H](NC(=O)CN1CCN(CC(=O)O)CCN(CC(=O)O)CCN(CC(=O)O)CC1)C(=O)N[C@H](C)C(=O)N1CCC[C@H]1B(O)O [Compound 6511, DOTA-Ala-D-Ala-boroPro] | 71.7 | – | – | – | –
5 | C[C@@H](NC(=O)CNC(=O)CN1CCN(CC(=O)O)CCN(CC(=O)O)CCN(CC(=O)O)CC1)C(=O)N1CCC[C@H]1B(O)O [Compound 6512, DOTA-Gly-D-Ala-boroPro] | 73.1 | – | – | – | –
6 | CC(C)[C@H](NC(=O)CNC(=O)CNC(=O)CN1CCN2CCN(CC(=O)O)CCN(CC1)CC(=O)[O][Cu][O]C(=O)C2)C(=O)N[C@H](C)C(=O)N1CCC[C@H]1B(O)O [Compound 6522CU, DOTA[(Cu(II)]-Gly-Gly-Val-D-Ala-boroPro] (HELM PEPTIDE1{[O=C(O)CN1CCN2CCN(CC(=O)[*:2])CCN(CC1)CC(=O)[O][Cu][O]C(=O)C2].G.G.V.[dA].[OB(O)[C@@H]1CCCN1[*:1]]}$$$$V2.0) | 8.7 | 3.5 | – | – | –
7 | C[C@@H](NC(=O)c1ccc(CNC(=O)CN2CCN(CC(=O)O)CCN(CC(=O)O)CCN(CC(=O)O)CC2)cc1)C(=O)N1CCC[C@H]1B(O)O [Compound 6555, DOTA-aminomethyl-Bz-D-Ala-boroPro] | – | – | > 50 | did not observe any sign of degradation | > 100
8 | C[C@@H](NC(=O)c1ccc(CNC(=O)CN2CCN3CCN4CCN(CC2)CC(=O)[O][Ga]([O]C(=O)C3)[O]C(=O)C4)cc1)C(=O)N1CCC[C@H]1B(O)O [Compound 6555GA] | – | – | > 50 | did not observe any sign of degradation | > 100
9 | C[C@@H](NC(=O)c1ccc(CNC(=O)CN2CCN3CCN4CCN(CC2)CC(=O)[O][Lu]([O]C(=O)C3)[O]C(=O)C4)cc1)C(=O)N1CCC[C@H]1B(O)O [Compound 6555LU] | – | – | > 50 | did not observe any sign of degradation | > 100
10 | C[C@@H](NC(=O)[C@H]1CC[C@H](CNC(=O)CN2CCN3CCN4CCN(CC2)CC(=O)[O][Ga]([O]C(=O)C3)[O]C(=O)C4)CC1)C(=O)N1CCC[C@H]1B(O)O [Compound 6952GA, DOTA(Ga)-TXA-D-alaboroPro] | – | – | > 50 | did not observe any sign of degradation | –
11 | C[C@@H](NC(=O)[C@H]1CC[C@H](CNC(=O)CN2CCN3CCN4CCN(CC2)CC(=O)[O][Lu]([O]C(=O)C3)[O]C(=O)C4)CC1)C(=O)N1CCC[C@H]1B(O)O [Compound 6952LU, DOTA(Lu)-TXA-D-alaboroPro] | – | – | > 50 | did not observe any sign of degradation | > 100
12 | DOTA[Cu(II)]-EACA-HyBz-D-Ala-boroPro [Compound 6486] | 2.8 | 2.8 | – | – | –
